In ChEMBL document CHEMBL2046435, “Cytotoxic metabolites from the antarctic psychrophilic fungus Oidiodendron truncatum” (J Nat Prod, 2012):

What was measured:
Format in all cases: functional, cell-based
A2780 = assay: Cytotoxicity against human A2780 cells after 72 hrs by MTT assay; conditions: A2780, 72 h
A549 = assay: Cytotoxicity against human A549 cells after 72 hrs by MTT assay; conditions: A549, 72 h
HCT-8 = assay: Cytotoxicity against human HCT8 cells after 72 hrs by MTT assay; conditions: HCT-8, 72 h
Bel-7402 = assay: Cytotoxicity against human Bel7402 cells after 72 hrs by MTT assay; conditions: Bel-7402, 72 h
BGC-823 = assay: Cytotoxicity against human BGC823 cells after 72 hrs by MTT assay; conditions: BGC-823, 72 h

CN1C(=O)[C@]23SS[C@@]1(CO)C(=O)N2[C@H]1Nc2ccccc2C1([C@@]12c4ccccc4N[C@@H]1N1C(=O)[C@]4(CO)SSS[C@]1(C(=O)N4C)[C@H]2O)[C@@H]3O (stereo partly drawn) [CHETRACIN B]
IC50 (A2780): 0.028 µM | IC50 (A549): 0.022 µM | IC50 (HCT-8): 0.013 µM | IC50 (Bel-7402): 0.003 µM | IC50 (BGC-823): 0.011 µM

CN1C(=O)[C@]23SSS[C@]1(CO)C(=O)N2[C@H]1Nc2ccccc2[C@@]1(c1c[nH]c2ccccc12)[C@@H]3O
IC50 (A2780): 0.42 µM | IC50 (A549): 1.53 µM | IC50 (HCT-8): 1.18 µM | IC50 (Bel-7402): 0.75 µM | IC50 (BGC-823): 1.46 µM

CS[C@@]1(CO)C(=O)N2[C@H]3Nc4ccccc4C3([C@@]34c5ccccc5N[C@@H]3N3C(=O)[C@](CO)(SC)N(C)C(=O)[C@@]3(SC)[C@H]4O)[C@H](O)[C@]2(SC)C(=O)N1C (stereo partly drawn) [CHETRACIN D]
IC50 (A2780): 1.65 µM | IC50 (A549): 0.14 µM | IC50 (HCT-8): 1.06 µM | IC50 (Bel-7402): 0.81 µM | IC50 (BGC-823): 1.83 µM

CN1C(=O)[C@]23SS[C@@]1(CO)C(=O)N2[C@H]1Nc2ccccc2C1([C@@]12c4ccccc4N[C@@H]1N1C(=O)[C@]4(CO)SS[C@]1(C(=O)N4C)[C@H]2O)[C@@H]3O (stereo partly drawn) [MELINACIDIN IV]
IC50 (A2780): 0.054 µM | IC50 (A549): 0.022 µM | IC50 (HCT-8): 0.052 µM | IC50 (Bel-7402): 0.005 µM | IC50 (BGC-823): 0.047 µM

CN1C(=O)[C@]23SSS[C@@]1(CO)C(=O)N2[C@H]1Nc2ccccc2C1([C@@]12c4ccccc4N[C@@H]1N1C(=O)[C@]4(CO)SSS[C@]1(C(=O)N4C)[C@H]2O)[C@@H]3O (stereo partly drawn) [CHETRACIN C]
IC50 (A2780): 0.58 µM | IC50 (A549): 0.72 µM | IC50 (HCT-8): 0.49 µM | IC50 (Bel-7402): 0.38 µM | IC50 (BGC-823): 0.7 µM

CC(=O)O[C@H]1C(=O)[C@@]2(C)[C@H]([C@H](OC(=O)c3ccccc3)[C@]3(O)C[C@H](OC(=O)[C@H](O)[C@@H](NC(=O)c4ccccc4)c4ccccc4)C(C)=C1C3(C)C)[C@]1(OC(C)=O)CO[C@@H]1C[C@@H]2O [PACLITAXEL]
IC50 (A2780): < 0.001 µM | IC50 (Bel-7402): 0.006 µM | IC50 (BGC-823): < 0.001 µM

CS[C@@]1(CO)C(=O)N2[C@H]3Nc4ccccc4[C@@]3(c3c[nH]c4ccccc34)[C@H](O)[C@]2(SC)C(=O)N1C [T988 B]
IC50 (A2780): > 10 µM | IC50 (A549): > 10 µM | IC50 (HCT-8): > 10 µM | IC50 (Bel-7402): > 10 µM | IC50 (BGC-823): > 10 µM

COC1(CO)NC(=O)/C(=C/c2c[nH]c3ccccc23)NC1=O (stereo not drawn) [OIDIOPERAZINE C]
IC50 (A2780): > 10 µM | IC50 (A549): > 10 µM | IC50 (HCT-8): > 10 µM | IC50 (Bel-7402): > 10 µM | IC50 (BGC-823): > 10 µM

CS[C@@]1(CO)C(=O)N2[C@H]3N(C=O)c4ccccc4[C@@]3(c3c[nH]c4ccccc34)[C@H](O)[C@]2(SC)C(=O)N1C [OIDIOPERAZINE A]
IC50 (A2780): > 10 µM | IC50 (A549): > 10 µM | IC50 (HCT-8): > 10 µM | IC50 (Bel-7402): > 10 µM | IC50 (BGC-823): > 10 µM

CS[C@]1(CO)NC(=O)[C@](Cc2c[nH]c3ccccc23)(SC)NC1=O [CHETOSEMINUDIN C]
IC50 (A2780): > 10 µM | IC50 (A549): > 10 µM | IC50 (HCT-8): > 10 µM | IC50 (Bel-7402): > 10 µM | IC50 (BGC-823): > 10 µM

CN1C(=O)[C@]23SS[C@]1(CO)C(=O)N2[C@H]1Nc2ccccc2[C@@]1(c1c[nH]c2ccccc12)[C@@H]3O [T988 C]
IC50 (A2780): 0.48 µM | IC50 (A549): 1.24 µM | IC50 (HCT-8): 0.7 µM | IC50 (Bel-7402): 0.55 µM | IC50 (BGC-823): 0.67 µM

O=C1N[C@@H](Cc2c[nH]c3ccccc23)C(=O)N[C@H]1CO
IC50 (A2780): > 10 µM | IC50 (A549): > 10 µM | IC50 (HCT-8): > 10 µM | IC50 (Bel-7402): > 10 µM | IC50 (BGC-823): > 10 µM

C=C1NC(=O)C(Cc2c[nH]c3ccccc23)(OC)N(OC)C1=O (stereo not drawn) [OIDIOPERAZINE D]
IC50 (A2780): > 10 µM | IC50 (A549): > 10 µM | IC50 (HCT-8): > 10 µM | IC50 (Bel-7402): > 10 µM | IC50 (BGC-823): > 10 µM

CON1C(=O)C(CO)NC(=O)C1(O)Cc1c[nH]c2ccccc12 (stereo not drawn) [OIDIOPERAZINE B]
IC50 (A2780): > 10 µM | IC50 (A549): > 10 µM | IC50 (HCT-8): > 10 µM | IC50 (Bel-7402): > 10 µM | IC50 (BGC-823): > 10 µM
